Reference: article PMC5025259 (ACS infectious diseases, 2016)

Experiments:
[1] = system: bloodstream form (BSF) CA427 trypanosomes; experiment: Proliferation inhibition assay; type: cell-based, Trypanosoma brucei; conditions: axenic cultures of bloodstream trypanosomes, 48 h
[2] = system: Hp-Hb endocytosis in bloodstream T. brucei; experiment: Endocytosis assay: Hp-Hb-A488 uptake by bloodstream trypanosomes; type: cell-based, Trypanosoma brucei; conditions: Hp-Hb 38 nM
[3] = system: Tf endocytosis in TbGSK3β overexpression trypanosomes; experiment: Tf endocytosis in trypanosomes overexpressing TbGSK3β; type: cell-based, Trypanosoma brucei; conditions: clone 1, TWS119 10 μM, 3 h induction
[4] = system: BSA endocytosis in bloodstream T. brucei; experiment: Endocytosis assay: BSA-A647 uptake by bloodstream trypanosomes; type: cell-based, Trypanosoma brucei; conditions: bulk-phase uptake
[5] = system: Tf endocytosis in HeLa cells; experiment: HeLa cell endocytosis of transferrin; type: cell-based, human; conditions: each compound 10 μM, Tf-Alexa488 5 μg/mL, 15 min at 37 °C
[6] = system: transferrin (Tf) endocytosis in bloodstream T. brucei; conditions: cited from earlier work
[7] = system: bloodstream form (BSF) CA427 trypanosomes; conditions: read-out: GI50 (concentration of drug that inhibits growth by 50%); trypanosome proliferation; cited from earlier work
rTbGSK3β = molecular target: T1, rTbGSK3β (Trypanosoma brucei brucei, UniProt Q388M1); experiment: biochemical
T1 sequence (Q388M1 1-352): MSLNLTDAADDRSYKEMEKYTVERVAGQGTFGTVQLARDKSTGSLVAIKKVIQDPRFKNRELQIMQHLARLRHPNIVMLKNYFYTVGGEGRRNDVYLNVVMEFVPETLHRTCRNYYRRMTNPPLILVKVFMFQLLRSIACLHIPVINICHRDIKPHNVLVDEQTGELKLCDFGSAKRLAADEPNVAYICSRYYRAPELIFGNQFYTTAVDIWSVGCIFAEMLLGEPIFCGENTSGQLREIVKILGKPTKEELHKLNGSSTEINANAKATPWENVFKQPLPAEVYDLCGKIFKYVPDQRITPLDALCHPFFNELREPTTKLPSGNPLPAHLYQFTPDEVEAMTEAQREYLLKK

[8] = system: transferrin (Tf) endocytosis in bloodstream T. brucei; type: cell-based, Trypanosoma brucei; conditions: Figure S1

SMILES	T. brucei GL50 [1] [µM]	Effect on BSA endocytosis [4]	Effect on Tf endocytosis in HeLa cells [5]	other results
Nc1cccc(-c2cc3c(Oc4cccc(O)c4)ncnc3[nH]2)c1 [TWS119]	1.1	did not decrease	Neither TbGSK3β inhibitor affected	Effect on Hp-Hb endocytosis [2]: did not decrease; Reduction of Tf endocytosis driven by TbGSK3β overexpression [3]: 300%
CS(=O)(=O)CCNCc1ccc(-c2ccc3ncnc(Nc4ccc(OCc5cccc(F)c5)c(Cl)c4)c3c2)o1 [Lapatinib]				Effect on Tf endocytosis in T. brucei ([6]; ref Guyett, P.J., et al., manuscript submitted): blocks
CNC(=O)c1cc(Oc2ccc(NC(=O)Nc3ccc(Cl)c(C(F)(F)F)c3)cc2)ccn1 [Sorafenib]	3.1			
C[C@@H](Nc1ncnc2[nH]c(-c3ccc(O)cc3)cc12)c1ccccc1 [PKI-166]		did not inhibit		GI50 [7]: 5 µM; IC50 (rTbGSK3β): > 20 µM; Effect on Tf endocytosis [8]: did not inhibit
Cc1cc(Nc2cc(CN3CCOCC3)c3nc(C)c(Cc4ccc(Cl)cc4F)n3n2)n[nH]1 [LY2784544]	1.0			IC50 (rTbGSK3β): 0.6 ± 0.2 µM
O=S(=O)(NCCNC/C=C/c1ccc(Br)cc1)c1cccc2cnccc12 [H-89]			decreased	
O=C1Nc2ccc3ncsc3c2/C1=C/Nc1ccc(S(=O)(=O)Nc2ccccn2)cc1 [GW8510]	0.12	decreased	Neither TbGSK3β inhibitor affected	
N#C/C(=C\c1ccc(O)c(O)c1)C(N)=S [tyrphostin-A47]				Effect on Tf endocytosis in the parasite [6]: blocks
